Measured values published in paper PMC3155282 (ACS Medicinal Chemistry Letters, 2011).

Experiments:
CYP3A4 [1] = biological target: T1, CYP3A4 (Homo sapiens, UniProt P08684); conditions: recombinant enzyme
CYP2D6 = CYP2D6 (Homo sapiens, UniProt P10635); conditions: recombinant enzyme
[2] = tested on: others of recombinant CYP1A2, 2B6, 2C8, 2C9, 2C19, 2D6 and 3A4; conditions: recombinant enzyme
cytochrome P450s = conditions: cited from earlier work
CYP2D6 and 2J2 = conditions: catalyzed by CYP2D6 and 2J2; cited from earlier work
CYP3A4 [3] = biological target: T1, CYP3A4; conditions: cited from earlier work
CYP2C8 = biological target: T2, CYP2C8 (Homo sapiens, UniProt P10632); test: P450 isoform phenotyping assay, parent compound depletion, recombinant CYP2C8; type: in vitro ADME; conditions: recombinant CYP2C8, 1 µM compound
T2 sequence (P10632 1-490): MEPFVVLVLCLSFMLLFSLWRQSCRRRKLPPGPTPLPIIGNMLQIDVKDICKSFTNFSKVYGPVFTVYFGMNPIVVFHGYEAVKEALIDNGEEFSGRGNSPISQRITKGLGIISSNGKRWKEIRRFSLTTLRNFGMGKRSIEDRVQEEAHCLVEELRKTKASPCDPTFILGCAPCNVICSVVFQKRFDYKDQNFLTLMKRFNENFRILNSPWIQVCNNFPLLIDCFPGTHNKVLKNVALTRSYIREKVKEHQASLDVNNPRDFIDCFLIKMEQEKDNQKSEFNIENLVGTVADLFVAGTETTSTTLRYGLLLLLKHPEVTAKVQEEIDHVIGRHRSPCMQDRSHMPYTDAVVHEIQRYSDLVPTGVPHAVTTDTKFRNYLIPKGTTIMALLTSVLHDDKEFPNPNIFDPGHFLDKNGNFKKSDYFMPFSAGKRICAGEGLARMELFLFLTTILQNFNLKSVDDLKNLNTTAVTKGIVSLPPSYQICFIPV

Sequence of CYP2D6 (P10635 whole entry): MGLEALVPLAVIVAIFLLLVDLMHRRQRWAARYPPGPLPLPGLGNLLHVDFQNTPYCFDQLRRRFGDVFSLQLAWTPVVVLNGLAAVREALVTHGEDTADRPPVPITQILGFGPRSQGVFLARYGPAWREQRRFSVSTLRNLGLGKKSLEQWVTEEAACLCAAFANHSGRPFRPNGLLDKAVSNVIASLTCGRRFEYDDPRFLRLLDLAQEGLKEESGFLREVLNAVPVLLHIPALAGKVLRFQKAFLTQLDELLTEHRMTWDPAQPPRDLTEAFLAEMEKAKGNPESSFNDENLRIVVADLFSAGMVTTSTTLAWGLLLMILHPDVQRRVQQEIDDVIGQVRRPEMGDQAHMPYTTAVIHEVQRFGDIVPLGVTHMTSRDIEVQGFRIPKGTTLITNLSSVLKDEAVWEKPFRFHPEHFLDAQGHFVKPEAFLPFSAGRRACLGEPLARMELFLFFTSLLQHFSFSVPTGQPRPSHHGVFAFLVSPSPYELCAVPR
T1 sequence (P08684 whole entry): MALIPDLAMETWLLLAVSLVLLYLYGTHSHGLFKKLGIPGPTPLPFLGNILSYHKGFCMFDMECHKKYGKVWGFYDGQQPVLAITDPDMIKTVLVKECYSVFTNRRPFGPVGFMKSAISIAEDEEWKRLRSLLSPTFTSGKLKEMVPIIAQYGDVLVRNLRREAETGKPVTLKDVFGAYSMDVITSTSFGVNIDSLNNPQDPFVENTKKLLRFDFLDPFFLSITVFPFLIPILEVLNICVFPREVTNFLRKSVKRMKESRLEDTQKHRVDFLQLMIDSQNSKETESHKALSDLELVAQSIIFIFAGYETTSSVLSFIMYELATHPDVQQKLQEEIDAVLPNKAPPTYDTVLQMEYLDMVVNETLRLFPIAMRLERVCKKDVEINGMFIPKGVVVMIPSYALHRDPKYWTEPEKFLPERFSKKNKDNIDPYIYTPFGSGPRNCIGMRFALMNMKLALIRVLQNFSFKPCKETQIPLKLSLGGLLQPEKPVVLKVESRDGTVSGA

Row | SMILES | half-life (t1/2) of parent compound depletion from phenotyping assay, 3A4 (CYP3A4 [1]) | half-life (t1/2) of parent compound depletion from phenotyping assay, 2D6 (CYP2D6) | half-life (t1/2) of parent compound depletion from phenotyping assay, others [2] | N-dealkylation (major or minor pathway) (cytochrome P450s) | conversion from astemizole to O-desmethylastemizole (CYP2D6 and 2J2) [%] | conversion from astemizole to benzimidazole hydroxylated metabolite (CYP3A4 [3]) [%] | contribution of CYP2D6 to metabolism (CYP2D6) | half-life (t1/2) of parent compound depletion from phenotyping assay, 2C8 (CYP2C8)
1 | O=c1[nH]c2ccccc2n1C1CCN(CCCC(c2ccc(F)cc2)c2ccc(F)cc2)CC1 [pimozide] | 3A4 (2.7 m), 2D6 (3.2 m), others (>60 m) | 3A4 (2.7 m), 2D6 (3.2 m), others (>60 m) | 3A4 (2.7 m), 2D6 (3.2 m), others (>60 m) | major |  |  |  | 
2 | O=C(CCCN1CCC(n2c(=S)[nH]c3ccccc32)CC1)c1ccc(F)cc1 [timiperone] |  |  |  | major |  |  |  | 
3 | COc1cc(N)c(Cl)cc1C(=O)NC1CCN(Cc2ccccc2)CC1 [clebopride] | 3A4 (<5 m), others (>60 m) |  | 3A4 (<5 m), others (>60 m) | major |  |  |  | 
4 | COc1ccc(CCN2CCC(Nc3nc4ccccc4n3Cc3ccc(F)cc3)CC2)cc1 [astemizole] | 3A4 (1.5 m), 2D6 (4.0 m), others (>60 m) | 3A4 (1.5 m), 2D6 (4.0 m), others (>60 m) | 3A4 (1.5 m), 2D6 (4.0 m), others (>60 m) | minor | 67 | 25 |  | 
5 | COc1cc(N)c(Cl)cc1C(=O)NC1CCN(CCCOc2ccc(F)cc2)CC1OC (centres unmarked) [cisapride] |  |  | 3A4 (<5 m), others (>60 m) | major |  |  |  | 
6 | CN1CCC(N(Cc2ccccc2)c2ccccc2)CC1 [bamipine] |  |  |  | major |  |  |  | 
7 | O=C(NC1CCN(CCc2c[nH]c3ccccc23)CC1)c1ccccc1 [indoramin] | 2D6 (<5 m), 3A4 (16.0 m), others (>60 m) | 2D6 (<5 m), 3A4 (16.0 m), others (>60 m) | 2D6 (<5 m), 3A4 (16.0 m), others (>60 m) | minor |  |  | contributed significantly | 
8 | CN(c1nc2ccccc2s1)C1CCN(CC(O)COc2ccc(F)cc2)CC1 (centres unmarked) [sabeluzole] | 2D6 (1.5 m), 3A4 (<5.0 m), others (>60 m) | 2D6 (1.5 m), 3A4 (<5.0 m), others (>60 m) | 2D6 (1.5 m), 3A4 (<5.0 m), others (>60 m) | minor |  |  | contributed significantly | 
9 | O=C(CCCN1CCC(n2c(O)nc3ccccc32)CC1)c1ccc(F)cc1 [benperidol] | 3A4 (3.3 m), 2D6 (10.4 m), 2C8 (43.8 m), others (>60 m) | 3A4 (3.3 m), 2D6 (10.4 m), 2C8 (43.8 m), others (>60 m) | 3A4 (3.3 m), 2D6 (10.4 m), 2C8 (43.8 m), others (>60 m) | major |  |  |  | 3A4 (3.3 m), 2D6 (10.4 m), 2C8 (43.8 m), others (>60 m)
